For data set [1], the system named is tapA operon. As to the kind of experiment: β-Galactosidase transcriptional fusion, matrix gene expression (tapA). The settings on record: for expression of the tapA operon: similar concentrations of NaCl or CaCl2. Format: cell-based, Bacillus subtilis. An excerpt:
(§1) To analyze the effect of magnesium ions on matrix gene expression a transcriptional fusions of the promoters for eps and tapA to the gene encoding β galactosidase were used. Samples of generated pellicles as described above were collected and resuspended in phosphate-buffered saline (PBS) buffer. Typical long bundled chains of cells in the biofilm colony were disrupted using mild sonication as described previously. Optical density of the cell samples was normalized using OD600. One milliliter of cell suspensions was collected and assayed for (3-Galactosidase activity as described previously.
(§2) The effect of Mg^2+ ions on matrix gene expression was examined by using transcriptional fusions of the promoters for epsA-O and tapA to the gene encoding β galactosidase.

Data set [2] deals with Bacillus subtilis wild strain NCIB3610. Put plainly: Pellicle (biofilm) formation in LBGM broth. Format: cell-based. The settings on record: for biofilm formation by B. subtilis: NaCl or CaCl2 added to LBGM, results not shown; for pellicle formation by B. subtilis: LBGM medium, 30° C., 24 h. As for the experimental part: Plates were incubated at 30° C. for 24 h.
For another data set, the system named is epsA-O operon. Put plainly: β-Galactosidase transcriptional fusion, matrix gene expression (eps). Format: cell-based, Bacillus subtilis. The settings on record: for expression of the eps operon: similar concentrations of NaCl or CaCl2.
Text: as §1, §2

For data set [3], the system named is Bacillus subtilis NCIB 3610.
Protocol: Additional experiments were conducted in order to evaluate the effect of magnesium ions on colony type biofilm formation by Bacillus subtilis on a solid surface. First a starter culture was prepared by growing bacteria from the strain Bacillus subtilis NCIB 3610 in an LB (Lysogeny broth) medium at 37° C., 150 rpm for 5 hours. […] Following these steps, 3 μl of the starter culture were spotted onto each of the solid biofilm promoting mediums. The samples were incubated at 30° C. for 72 hours prior to analysis. Images were taken using a Zeiss Stemi 2000-C microscope with an axiocam ERc 5s camera.
The procedure of data set [4]: In order to examine milk clotting parameters, milk samples obtained from the dairy farm of the Agricultural Research Organization (ARO; Bet Dagan, Israel). […] Milk-clotting parameters such as rennet clotting time (RCT; min) and curd firmness (CF; V) after 90 min (CF-90) which are measured with an Optigraph instrument (Ysebaert, Frepillon, France) as described by Leitner et al. (2011). Results are presented in a graph. The point in which the curve is split into two curves, represents the rennet Clotting Time (RCT), which is the time between the addition of the clotting enzyme and the beginning of the coagulation process. The curd firmness is derived from the distance of the two curves in the graph 30 min after the addition of the clotting enzyme, or 90 minutes after the addition of the clotting enzyme.

Data set [5] relates to B. subtilis cells (YC161 with Pspank-gfp). The following applies: 25 mM MgCl2 and higher; 24 h in LBGM.
Protocol: For fluorescent microscopy, the strain YC161 that produced GFP constitutively, was used. The strain was first grown in shaking culture for 5 h 37° C./150 rpm in LB to around 1×10^8 CFU per ml. Next, 5 μl (around 5×10^5 CFU) of suspension from the generated culture was introduced into 4 ml of LBGM medium and incubated at 30° C. for 24 h statically. Afterwards, one milliliter of suspension from each sample was collected, mildly sonicated (10 sec/20% Amp/5) and centrifuged at 5000 rpm for 2 min. Next, the supernatant was removed and the pellet was re-suspended by pipetting. For microscopic observation, 34, from the samples were transferred onto a glass slide and visualized in a transmitted light microscope using Nomarski differential interference contrast (DIC), at ×40 magnification. A confocal laser scanning microscope was used to visualize GFP expression of strain YC161 using an Olympus IX81 confocal laser scanning microscope (Japan) equipped with 488 nm argon-ion and 543 nm helium neon lasers.
Next, the effect of magnesium ions was visualized microscopically by testing bundling phenotype of fluorescently tagged B. subtilis cells (YC161 with Pspank-gfp), that produce GFP constitutively.
Data set [6] has as its system B. subtilis. The following applies: at 50 mM and higher (50 and 80 mM tested). The source says: Further, the effect of magnesium ions on biofilm formation by B. subtilis within orange juice enriched medium, was examined.
A further data set deals with B. subtilis NCIB3610. The following applies: LBGM, tested concentrations (5-100 mM MgCl2). As for the experimental part: Initially, the cells were grown in shaking cultures over night at 23° C./150 rpm in LB to around 2×10^9 CFU per ml. […] The absorbance of the cultures at 600 nm was measured periodically for each culture for 9 hours. Each condition had 3 replicates, and the growth curve experiments were repeated twice.

Data set [7] relates to B. subtilis. The settings on record: milk supplemented with additional 3 mM or 5 mM MgCl2. An excerpt:
The effect of increase in the concentration of magnesium ions was examined. […] The survival rate of bacteria following pasteurization was examined.

The test system of data set [8] is tapA operon. The following applies: increase of 1, 3 or 5 mM; particularly 5 mM MgCl2. The protocol:
The effect of increase in concentration of Mg′ within milk on the expression of tapA operon, which is one of the major operon for matrix production, was examined. For this purpose, B. subtilis were grown within cow's milk and cow's milk with an increase of 1 mM, 3 mM or 5 mM in concentration of magnesium ions. Further, transcriptional fusions of tapA promoter to the gene encoding cyan fluorescent protein (CFP) were utilized.

For data set [9] the following is noted: 50 mM or 100 mM MgCl2; B. subtilis culture, 5 hours, 37° C. The protocol:
Cultures were incubated for 5 hours at 37° C. and 50 rpm and pH was measured every hour using pH strips.

The subject of data set [10] is Bacillus subtilis wild strain NCIB3610. The settings on record: high concentrations of Mg ions; solid LBGM, 30° C., 72 h.
Protocol: For routine growth, all strains were propagated in Lysogeny broth (LB; 10 g of tryptone, 5 g of yeast extract and 5 g of NaCl per liter) or on solid LB medium supplemented with 1.5% agar. For biofilm generation, bacteria were grown to stationary phase in LB medium at 37° C. in shaking culture to around 1×10^8 CFU per ml. Biofilms were generated at 30° C. in the biofilm promoting medium LBGM (LB+1% (v/v) glycerol+0.1 mM MnSO4). […] For colony type biofilm formation, 3 μl of the cells (around 3×10^5 CFU) was spotted onto LBGM medium solidified with 1.5% agar as described previously. Plates were incubated at 30° C. for 72 h prior to analysis. For pellicle formation, 5 μl of the cells (around 5×10^5 CFU) was mixed within 4 ml of LBGM broth in 12-well plates (Costar). Plates were incubated at 30° C. for 24 h. Images were taken using a Zeiss Stemi 2000-C microscope with an axiocam ERc 5s camera.
Data set [11] concerns B. subtilis. As for the experimental part: The effect of magnesium ions on biofilm formation within cow's milk was examined. A skilled artisan will appreciate that magnesium concentration within cow's milk typically ranges between 4-6 mM.
Where [12] appears, read: elevated concentrations of Mg2+ ions, pellicles in LBGM.

Molecules are shown by their SMILES. Read-outs that look alike come from different tables or passages of the source.

Regarding `[Ca+2].[Cl-].[Cl-]` [CaCl2], the “expression of the tapA operon” value in the data set on tapA operon [1] was “not downregulated in a similar manner”. Further, the “biofilm formation by B. subtilis” value in data set [2] is listed as “none of those compounds could inhibit the biofilm formation in the same manner as MgCl2”. Also, in the data set on epsA-O operon, the “expression of the eps operon” value is recorded as “not downregulated in a similar manner”.

On to `[Cl-].[Cl-].[Mg+2]` [MgCl2, magnesium chloride], for which the “biofilm formation by B. subtilis on solid surface” value in [3] (magnesium ions 20 mM or 50 mM spread onto a solid surface) is reported as “reduced biofilm formation”. Further, the “biofilm formation onto pre-treated surface, stronger effect” value in data set [3] (solution of 20 mM MgCl2 as printed (second sentence)) is listed as “inhibitory effect is more significant”. Further, the “biofilm formation by B. subtilis onto pre-treated surface” value in data set [3] (surface spread with solution of 20 mM MgCl2, 30° C., 72 h) is reported as “inhibitory effect on biofilm formation”. In addition, the “decrease in RCT” value in data set [4] (addition of 1 mM MgCl2) is “about 32%”; in [4] (addition of 3 mM MgCl2), ~51%; in [4] (addition of 5 mM MgCl2), ~62%; in [4] (addition of 7 mM MgCl2), ~70%; in data set [4] (addition of 10 mM MgCl2), ~84%; in [4] (addition of 15 mM MgCl2), ~73%. Besides, in [4] (addition of 20 mM MgCl2), the “decrease in RCT” value is reported as ~74%. In addition, the “increase in curd firmness” value in [4] (addition of 1 mM MgCl2) is “about 37%”; in data set [4] (addition of 3 mM MgCl2), ~54%; in [4] (addition of 5 mM MgCl2), ~69%; in [4] (addition of 7 mM MgCl2), ~82%; in data set [4] (addition of 10 mM MgCl2) it was ~84%; in data set [4] (addition of 15 mM MgCl2) it was ~90%. Besides, the “increase in curd firmness” value in [4] (addition of 20 mM MgCl2) is ~72%. Moreover, the “decrease in tapA expression” value with tapA operon [1] (setting [12]) is on record as ~14.5 fold. The “bundling ability of B. subtilis cells” value in data set [5] is “significant reduction in bundling ability”. Further, the “colony type biofilm formation within orange juice enriched medium” value in the data set with B. subtilis [6] is reported as “inhibits colony type biofilm formation”. Also, the bacterial growth entry in the data set on B. subtilis NCIB3610 is listed as “did not affect bacterial growth”. For the same compound, the “susceptibility of bacteria to heat pasteurization” value with B. subtilis [7] is given as “increase the susceptibility of bacteria to heat pasteurization”. Also, the “expression of the tapA operon within milk” value in the data set on tapA operon [8] was “reduced drastically”. The “pellicle formation by B. subtilis” value in data set [2] was “inhibited notably pellicle formation by B. subtilis in a concentration dependent manner”. Moreover, the “reduction in eps expression” value in the data set on epsA-O operon (setting [12]) was “around 4 fold”. For the same compound, in data set [9], the “pH of the milk” value was “does not affect the pH of the milk”. Moreover, the “colony type biofilm formation” value in data set [10] is listed as “inhibited significantly”. Further, the “biofilm bundles within milk” value in the data set with B. subtilis [11] (5 mM increase of MgCl2 concentration) is “biofilm bundles are almost totally diminished”. Moreover, the “biofilm formation by B. subtilis within milk” value is reported as “inhibit biofilm formation by B. subtilis within milk” with B. subtilis [11] (cow's milk, magnesium increase of 1, 3 or 5 mM) and “inhibitory effect of Mg2+ ions is notable” with B. subtilis [11] (magnesium concentration increased by 1 mM). Besides, the “bacterial growth within milk” value with B. subtilis [11] (increased Mg ions concentration within milk) is “not significantly affected”.

As for `O=S(=O)([O-])[O-].[Mg+2]` [MgSO4, magnesium sulfate], in data set [2], the “pellicle formation by B. subtilis” value is reported as “inhibited the pellicle formation”.

`[Cl-].[Na+]` [NaCl]: in the data set with tapA operon [1], the “expression of the tapA operon” value is on record as “not downregulated in a similar manner”. Also, the “biofilm formation by B. subtilis” value in data set [2] was “none of those compounds could inhibit the biofilm formation in the same manner as MgCl2”. In the data set with epsA-O operon, the “expression of the eps operon” value is listed as “not downregulated in a similar manner”.
